Measured values taken from US4179565A, “2,5-Dimethyl-benzo[b]-thieno[2,3-f]morphan and precursors thereof” (priority 1977, dated 1979).

Assays:
I.C.R. Swiss albino mice [1] = experiment: Chemical analgesia, acetic acid writhing technique; format: in vivo; conditions: 25mg/kg, intraperitoneal; for analgesic activity, acetic acid writhing (in words): compared with dextropropoxyphene; for No. of writhes, mean ± S.E.M.: 20 minutes after acetic acid; for Significance of differences vs Dextropropoxyphene: No. of writhes
Experimental: The analgesic effect was studied on I.C.R. Swiss albino mice with the acetic acid writhing technique. Batches of 10 mice were made.
The products under study were administered intraperitoneally and after 30 minutes 0.25 ml of 1% acetic acid are injected intraperitoneally. A batch of control animals which only receive acetic acid is used. The number of writhes in each mouse is counted 20 minutes after administration of the acetic acid.

[2] = Acute toxicity (LD50, Litchfield-Wilcoxon test); conditions: mouse, in vivo, ip; intraperitoneal; deaths counted 48 hours after treatment; fasted mice
Experimental: Acute toxicity studies were performed on I.C.R. Swiss albino mice of both sexes weighing 30±2 g, kept fasting for 24 hours prior to the experiment. The room temperature and relative humidity were kept constant. The products were administered intraperitoneally, counting the number of deaths 48 hours after the treatment. The calculation of lethal dose 50 (LD50) was made by the Litchfield-Wilcoxon test.

I.C.R. Swiss albino mice [3] = experiment: Thermal analgesia, hot plate technique at 55° C.; format: in vivo; conditions: 50mg/kg, intraperitoneal; for thermal analgesic activity (in words): compared with dextropropoxyphene / control; for Jumping time, mean ± S.E.M.: 30 minutes
Experimental: The thermal analgesic effect was studied on I.C.R. Swiss albino mice. The hot plate technique was used at 55° C. Batches of 10 mice were made.
The products under study were administered intraperitoneally and after 30 minutes the mice were placed on the hot plate, counting the number of seconds they took to jump. Batches of control animals which are only injected with distilled water are used.

[4] = Table VI, Control 109.9 ± 6.362
[5] = Table VII, Control 109.9 ± 6.362
[6] = Table III, Control 48.8 ± 5.033

| Compound | analgesic activity, acetic acid writhing (in words) (I.C.R. Swiss albino mice [1]) | No. of writhes, mean ± S.E.M. (I.C.R. Swiss albino mice [1]; Table V, Control 101.4 ± 8.973) | LD50 at 48 h [2] [mg/kg] | thermal analgesic activity (in words) (I.C.R. Swiss albino mice [3]) | Jumping time, mean ± S.E.M. (I.C.R. Swiss albino mice [3]; Table II, Control 64 ± 7.919) [s] | Significance of differences vs Dextropropoxyphene (I.C.R. Swiss albino mice [3]; Table II, jumping time) | No. of writhes, mean ± S.E.M. (I.C.R. Swiss albino mice [1]; [4]) | No. of writhes, mean ± S.E.M. (I.C.R. Swiss albino mice [1]; [5]) | Jumping time, mean ± S.E.M. (I.C.R. Swiss albino mice [3]; [6]) [s] | Jumping time, mean ± S.E.M. (I.C.R. Swiss albino mice [3]; Table IV, Control 48.8 ± 5.033) [s] | Significance of differences vs Dextropropoxyphene (I.C.R. Swiss albino mice [1]; Table VI) | Significance of differences vs Dextropropoxyphene (I.C.R. Swiss albino mice [1]; Table VII) |
| --- | --- | --- | --- | --- | --- | --- | --- | --- | --- | --- | --- | --- |
| CN1CCC2(C)CC1Cc1c2sc2ccccc12 (racemic) [Product I, 2,5-dimethyl-benzo[b]thieno[2,3-f]morphan] | greater analgesic activity then dextropropoxyphene | 3.1 ± 1.234 | 35.2 | analgesic activity which is not significantly different from that of dextropropoxyphene | 168.67 ± 11.334 | N.S. |  |  |  |  |  |  |
| CCC(=O)O[C@](Cc1ccccc1)(c1ccccc1)[C@H](C)CN(C)C [Dextropropoxyphene, dextropropoxyphene, reference compound] |  | 21.5 ± 5.929 |  |  | 164 ± 7.319 |  | 27.8 ± 8.365 | 27.8 ± 8.365 | 91.3 ± 7.894 | 91.3 ± 7.894 |  |  |
| CC1=CCN(C)C(Cc2csc3ccccc23)C1 (stereo not drawn) [Product II, 2-(3-benzo[b]thienylmethyl)-1,4-dimethyl-1,2,3,6-tetrahydropyridine] | not significantly different from that of dextropropoxyphene |  | 916 | lacking thermal analgesic activity |  |  | 41.2 ± 6.024 |  | 63 ± 8.368 |  | N.S. |  |
| CC1=CC(Cc2csc3ccccc23)N(C)CC1 (stereo not drawn) [Product III, 2-(3-benzo[b]thienylmethyl)-1,4-dimethyl-1,2,5,6-tetrahydropyridine] | not significantly different from that of dextropropoxyphene |  | 275 | lacking thermal analgesic activity |  |  |  | 22.5 ± 6.263 |  | 48.9 ± 5.292 |  | N.S. |
